Source: ChEMBL document CHEMBL3351611, “Diversity-oriented synthesis-facilitated medicinal chemistry: toward the development of novel antimalarial agents” (J Med Chem, 2014)
Values after ≈ are worked out from the molar mass of the structure shown.

Tests used:
Plasmodium falciparum = assay: Antimalarial activity against Plasmodium falciparum Dd2 assessed as inhibition of parasite proliferation; assay type: functional
[1] = Solubility in PBS buffet at pH 7.4 at 100 uM incubated for 18 hrs by UPLC-MS method; assay type: physicochemical; details: for solubility: buffer, pH 7.4, 18 h, 100 µM
[2] = Plasma concentration CD1 mouse at 20 mg/kg, ip dosed through cassette administration measured after 2 hrs by LC-MS/MS method; assay type: ADME, organism-based; set-up: dose 20 mg/kg, route intraperitoneal
[3] = Lipophilicity, log D of the compound by HPLC method; assay type: physicochemical
Plasmodium berghei [4] = assay: Antimalarial activity against Plasmodium berghei ANKA infected in CD1 Swiss albino mouse assessed as reduction in parasitemia level at 100 mg/kg, ip dosed seven times every 12 hrs over 3 days relative to control; assay type: functional; details: route intraperitoneal
[5] = Stability in mouse microsomes assessed as compound remaining at 1 uM after 1 hr at 37 degC by UPLC-MS method; assay type: ADME, Microsome; details: read-out: Stability
[6] = Plasma concentration in Plasmodium berghei ANKA infected CD1 Swiss albino mouse at 100 mg/kg, ip dosed seven times every 12 hrs over 3 days measured 30 mins after final dose on day 3; assay type: ADME, organism-based; set-up: dose 100 mg/kg, route intraperitoneal
hERG (KCNH2) = hERG (KCNH2) (Homo sapiens, UniProt Q12809); assay: Displacement of [3H]astemizole from human ERG expressed in HEK293 cell membranes at 10 uM incubated for 75 mins by scintillation counting method; details: HEK293 cell membranes that express hERG, probe [3H]astemizole
Plasmodium berghei [7] = assay: Antimalarial activity against Plasmodium berghei ANKA infected in CD1 Swiss albino mouse assessed as reduction in parasitemia; assay type: functional

hERG (KCNH2), sequence (Q12809 whole entry): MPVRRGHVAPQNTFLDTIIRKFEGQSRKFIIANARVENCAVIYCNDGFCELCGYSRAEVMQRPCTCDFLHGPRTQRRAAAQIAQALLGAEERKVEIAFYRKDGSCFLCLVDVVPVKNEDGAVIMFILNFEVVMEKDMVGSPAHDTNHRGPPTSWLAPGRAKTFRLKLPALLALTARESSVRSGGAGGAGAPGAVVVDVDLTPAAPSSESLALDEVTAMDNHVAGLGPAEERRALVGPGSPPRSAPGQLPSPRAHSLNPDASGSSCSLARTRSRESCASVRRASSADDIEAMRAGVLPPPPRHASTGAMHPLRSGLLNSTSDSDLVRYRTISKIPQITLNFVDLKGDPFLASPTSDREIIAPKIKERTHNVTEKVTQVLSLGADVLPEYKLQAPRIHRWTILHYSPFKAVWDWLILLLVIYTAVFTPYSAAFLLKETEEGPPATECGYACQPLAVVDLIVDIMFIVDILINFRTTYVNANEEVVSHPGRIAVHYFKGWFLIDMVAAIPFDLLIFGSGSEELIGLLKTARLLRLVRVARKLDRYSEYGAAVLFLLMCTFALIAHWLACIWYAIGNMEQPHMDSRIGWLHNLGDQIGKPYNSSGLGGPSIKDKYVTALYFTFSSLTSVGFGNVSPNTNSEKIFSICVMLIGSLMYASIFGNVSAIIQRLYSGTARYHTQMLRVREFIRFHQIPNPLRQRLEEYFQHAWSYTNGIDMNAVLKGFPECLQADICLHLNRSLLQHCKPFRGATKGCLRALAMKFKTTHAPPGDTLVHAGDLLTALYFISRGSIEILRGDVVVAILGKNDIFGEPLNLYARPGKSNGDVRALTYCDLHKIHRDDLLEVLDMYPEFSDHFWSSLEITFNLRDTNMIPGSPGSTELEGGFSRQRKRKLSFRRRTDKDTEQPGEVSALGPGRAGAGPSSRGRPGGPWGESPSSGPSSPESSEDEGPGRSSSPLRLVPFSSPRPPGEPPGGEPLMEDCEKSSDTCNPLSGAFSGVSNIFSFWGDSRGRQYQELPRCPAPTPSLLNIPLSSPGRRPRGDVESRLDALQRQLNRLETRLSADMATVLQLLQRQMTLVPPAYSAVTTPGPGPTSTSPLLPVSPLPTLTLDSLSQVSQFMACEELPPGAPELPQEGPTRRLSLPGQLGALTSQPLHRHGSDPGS

SMILES	GI50 (Plasmodium falciparum) [nM]	solubility [1] [µM]	logD [3]	remaining at 1 h, 1 µM [5] [%]	other results
Cc1noc(C)c1NC(=O)Nc1ccc2c(c1)C(=O)N([C@@H](C)CN(C)C)C[C@@H](C)[C@H](CN(C)S(=O)(=O)c1ccc(F)cc1)OCCCCCO2	111	> 100			
COc1ccc(COC[C@H](C)N2CC[C@H](CN(C)S(=O)(=O)c3ccc(F)cc3)OCCCC[C@H](C)Oc3ccc(NC(=O)Nc4c(C)noc4C)cc3C2=O)cc1	20	< 5			
Cc1noc(C)c1NC(=O)Nc1ccc2c(c1)C(=O)N([C@@H](C)CN(C)C)C[C@@H](C)[C@H](CN(C)S(=O)(=O)c1ccc(F)cc1)OCCCC[C@H](C)O2	4.2	> 100	2.9	8	concentration at 2 h [2]: 768 ng/mL; fold change (FC) (Plasmodium berghei [4]): 2; concentration at 0.5 h [6]: 300 ng/mL; inhibition at 1.25 h, 10 µM (hERG (KCNH2)): 13%
COc1ccc(COC[C@H](C)N2C[C@@H](C)[C@H](CN(C)S(=O)(=O)c3ccc(F)cc3)OCCCC[C@H](C)OCCC2=O)cc1	3410	< 5			
COc1ccc(COC[C@H](C)N2C[C@@H](C)[C@H](CN(C)S(=O)(=O)c3ccc(F)cc3)OCCCC[C@H](C)Oc3ccc(F)cc3C2=O)cc1	162	< 5			
Cc1noc(C)c1NC(=O)Nc1ccc2c(c1)C(=O)N(C(C)C)C[C@@H](C)[C@H](CN(C)S(=O)(=O)c1ccc(F)cc1)OCCCC[C@H](C)O2	22		4	< 5	solubility at 18 h, 100 µM ([1]; PBS buffer, pH 7.4): < 5 µM; inhibition at 1.25 h, 10 µM (hERG (KCNH2)): 0%
COc1ccc(COC[C@H](C)N2C[C@@H](C)[C@H](CN(C)S(=O)(=O)c3ccc(F)cc3)OCCCC[C@H](C)Oc3nccnc3C2=O)cc1	214	< 5			
COc1ccc(COC[C@H](C)N2C[C@@H](C)[C@H](CN(C)S(=O)(=O)c3ccc(F)cc3)OCCCC[C@H](C)Oc3ncccc3C2=O)cc1	59	< 5			
COc1ccc(COC[C@H](C)N2C[C@@H](C)[C@H](CN(C)S(=O)(=O)c3ccc(F)cc3)OCCOc3ccc(NC(=O)Nc4c(C)noc4C)cc3C2=O)cc1	2970	6 (≈ 4.61 µg/mL)			
C[C@@H]1CN([C@@H](C)CN(C)Cc2cc(F)ccc2F)C(=O)c2cccnc2O[C@@H](C)CCCCO[C@H]1CN(C)S(=O)(=O)c1ccc(F)cc1	10	< 5			
COc1ccc(COC[C@H](C)N2C[C@@H](C)[C@H](CN(C)S(=O)(=O)c3ccc(F)cc3)OCCCC[C@H](C)Oc3c(cnn3C)C2=O)cc1	375	15 (≈ 10.1 µg/mL)			
COc1ccc(COC[C@H](C)N2C[C@@H](C)[C@H](CN(C)S(=O)(=O)c3ccc(F)cc3)Oc3ccc(NC(=O)Nc4c(C)noc4C)cc3C2=O)cc1	> 5000				
Cc1noc(C)c1NC(=O)Nc1ccc2c(c1)C(=O)N([C@@H](C)CN(C)C)CC[C@H](CN(C)S(=O)(=O)c1ccc(F)cc1)OCCCC[C@H](C)O2	71	99 (≈ 71 µg/mL)		2	
COc1ccc(COC[C@H](C)N2C[C@@H](C)[C@H](CN(C)S(=O)(=O)c3ccc(F)cc3)OCCCC[C@H](C)Oc3cc(C(F)(F)F)ccc3C2=O)cc1	48	< 5			
C[C@@H]1CN([C@@H](C)CN(C)C)C(=O)c2cc(NC(=O)Nc3ccc(F)cc3)ccc2O[C@@H](C)CCCCO[C@H]1CN(C)S(=O)(=O)c1ccc(F)cc1	1.4	< 5	3.5	< 5	
Cc1noc(C)c1NC(=O)Nc1ccc2c(c1)C(=O)N([C@@H](C)CO)C[C@@H](C)[C@H](CN(C)S(=O)(=O)c1ccc(F)cc1)OCCCC[C@H](C)O2	240		2.9	< 5	inhibition at 1.25 h, 10 µM (hERG (KCNH2)): 11%
C[C@H]1[C@H](OC(=O)CCC(=O)O)O[C@@H]2O[C@@]3(C)CC[C@H]4[C@H](C)CC[C@@H]1[C@@]24OO3 [ARTESUNATE]					inhibition (INH) (Plasmodium berghei [7]): 97%
CCN(CC)C[C@H](C)N1C[C@@H](C)[C@H](CN(C)S(=O)(=O)c2ccc(F)cc2)OCCCC[C@H](C)Oc2ccc(NC(=O)Nc3c(C)noc3C)cc2C1=O	5	8 (≈ 6.07 µg/mL)	3.1	5	
COc1ccc(COC[C@H](C)N2C[C@@H](C)[C@H](CN(C)S(=O)(=O)c3ccc(F)cc3)OCCCC[C@H](C)Oc3ccc(NC(=O)Nc4c(C)noc4C)cc3C2=O)cc1	0.88	< 5			

SMILES	GI50 (Plasmodium falciparum) [nM]	solubility [1] [µM]	logD [3]	remaining at 1 h, 1 µM [5] [%]	other results
COc1ccc(COC[C@H](C)N2C[C@@H](C)[C@H](CN(C)S(=O)(=O)c3ccc(F)cc3)OCCCCCOc3ccc(NC(=O)Nc4c(C)noc4C)cc3C2=O)cc1	6				
C[C@@H]1CN([C@@H](C)CN(C)C)C(=O)c2cc(NC(=O)Nc3ccccc3)ccc2O[C@@H](C)CCCCO[C@H]1CN(C)S(=O)(=O)c1ccc(F)cc1			4.1		inhibition at 1.25 h, 10 µM (hERG (KCNH2)): 95%
COc1ccc(COC[C@H](C)N2C[C@@H](C)[C@H](CN(C)S(=O)(=O)c3ccc(F)cc3)OCCCC[C@H](C)Oc3cccnc3C2=O)cc1	403	< 5			
COc1ccc(COC[C@H](C)N2C[C@@H](C)[C@H](CN(C)S(=O)(=O)c3ccc(F)cc3)OCCCC[C@H](C)Oc3ccsc3C2=O)cc1	481	< 5			
CNC[C@H](C)N1C[C@@H](C)[C@H](CN(C)S(=O)(=O)c2ccc(F)cc2)OCCCCOc2ccc(NC(=O)Nc3c(C)noc3C)cc2C1=O	624	> 100		65	
Cc1noc(C)c1NC(=O)Nc1ccc2c(c1)C(=O)N([C@@H](C)CNCC(F)(F)F)C[C@@H](C)[C@H](CN(C)S(=O)(=O)c1ccc(F)cc1)OCCCC[C@H](C)O2	9		3.9	< 5	inhibition at 1.25 h, 10 µM (hERG (KCNH2)): 15%
Cc1noc(C)c1NC(=O)Nc1ccc2c(c1)C(=O)N([C@@H](C)C[N+](C)(C)[O-])C[C@@H](C)[C@H](CN(C)S(=O)(=O)c1ccc(F)cc1)OCCCC[C@H](C)O2	160	> 100	1.5	35	
COc1ccc(COC[C@H](C)N2C[C@@H](C)[C@H](CN(C)S(=O)(=O)c3ccc(F)cc3)OCCCCOc3ccc(NC(=O)Nc4c(C)noc4C)cc3C2=O)cc1	17	< 5		17	
COc1ccc(COC[C@H](C)N2C[C@@H](C)[C@H](CN(C)S(=O)(=O)c3ccc(F)cc3)OCCCCCNc3ccc(NC(=O)Nc4c(C)noc4C)cc3C2=O)cc1	76	< 5			
CNC[C@H](C)N1C[C@@H](C)[C@H](CN(C)S(=O)(=O)c2ccc(F)cc2)OCCCC[C@H](C)Oc2ccc(NC(=O)Nc3c(C)noc3C)cc2C1=O	320	> 100	1.7	51	
COc1ccc(COC[C@H](C)N2C[C@@H](C)[C@H](CN(C)S(=O)(=O)c3ccc(F)cc3)OCCCC[C@H](C)Oc3cc(F)ccc3C2=O)cc1	38	< 5			
Cc1noc(C)c1NC(=O)Nc1ccc2c(c1)C(=O)N([C@@H](C)CNCC(C)(C)C)C[C@@H](C)[C@H](CN(C)S(=O)(=O)c1ccc(F)cc1)OCCCC[C@H](C)O2	14	7 (≈ 5.41 µg/mL)	3.8	5	
C[C@@H]1CN([C@@H](C)CN(C)C)C(=O)c2cccnc2O[C@@H](C)CCCCO[C@H]1CN(C)S(=O)(=O)c1ccc(F)cc1	231	> 100		< 5	
COc1ccc(COC[C@H](C)N2C[C@@H](C)[C@H](CN(C)S(=O)(=O)c3ccc(F)cc3)OCCCC[C@H](C)Oc3ncc(F)cc3C2=O)cc1	162	< 5			
Cc1noc(C)c1NC(=O)Nc1ccc2c(c1)C(=O)N([C@@H](C)CN(C)C)C[C@@H](C)[C@H](CN(C)S(=O)(=O)c1ccc(F)cc1)OCCCCO2	91	> 100		15	
CCN(CC)C[C@H](C)N1C[C@@H](C)[C@H](CN(C)S(=O)(=O)c2ccc(F)cc2)OCCCC[C@H](C)Oc2ncccc2C1=O	79	> 100		< 5	
C[C@@H]1CN([C@@H](C)CN(C)C)C(=O)c2cc(NC(=O)NC3COC3)ccc2O[C@@H](C)CCCCO[C@H]1CN(C)S(=O)(=O)c1ccc(F)cc1	32	> 100	1.1	8	
Cc1noc(C)c1NC(=O)Nc1ccc2c(c1)C(=O)N([C@@H](C)CN1CCOCC1)C[C@@H](C)[C@H](CN(C)S(=O)(=O)c1ccc(F)cc1)OCCCC[C@H](C)O2	105	29 (≈ 22.4 µg/mL)	3.5	< 5	inhibition at 1.25 h, 10 µM (hERG (KCNH2)): 1%
COc1ccc(COC[C@H](C)N2C[C@@H](C)[C@H](CN(C)S(=O)(=O)c3ccc(F)cc3)OCCCOc3ccc(NC(=O)Nc4c(C)noc4C)cc3C2=O)cc1	767	< 5			
